Measured values published in patent US20060281763A1, “Carboxamide inhibitors of TGFbeta” (priority 2005, published 2006).

biological target: T1, TGFβ R1 (Homo sapiens, UniProt P36897); experiment: TGFβ R1 autophosphorylation protocol (33P-ATP, phosphocellulose filter plate); format: biochemical; conditions: 10 uM ATP, 170 nM TGFβ R1, 20 minutes at room temperature, read-out: IC50 for Kinase Inhibition
T1 sequence (P36897 34-503): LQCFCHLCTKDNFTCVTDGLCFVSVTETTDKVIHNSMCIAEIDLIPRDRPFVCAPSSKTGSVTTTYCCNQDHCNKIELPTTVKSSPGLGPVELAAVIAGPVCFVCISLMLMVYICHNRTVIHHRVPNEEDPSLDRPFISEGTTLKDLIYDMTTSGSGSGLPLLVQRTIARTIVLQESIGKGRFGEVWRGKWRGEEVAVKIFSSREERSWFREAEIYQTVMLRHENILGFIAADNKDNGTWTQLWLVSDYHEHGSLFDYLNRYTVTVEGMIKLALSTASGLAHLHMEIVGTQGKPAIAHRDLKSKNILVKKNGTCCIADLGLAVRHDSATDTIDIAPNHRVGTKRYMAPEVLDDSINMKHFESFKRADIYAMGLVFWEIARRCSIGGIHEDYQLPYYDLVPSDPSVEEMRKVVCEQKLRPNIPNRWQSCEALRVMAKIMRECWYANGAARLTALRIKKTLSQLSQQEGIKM
Procedure, shortened: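 Radiometric autophosphorylation: 170 nM enzyme with compound (≤1% DMSO), 10 uM ATP plus γ-33P-ATP, […] in 20 mM MOPS pH 7, 20 min at room temperature. Reaction stopped on phosphocellulose filter, washed with H3PO4 and ethanol, counted by scintillation.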

Row | IC50 [nM] | Structure (SMILES)
1 | 40 | CC(C)c1cnc(-c2cc(Cl)ccc2F)nc1Nc1ccncc1C(=O)NCCCN1CC[C@@H](O)C1 [Compound 113, 4-[2-(5-Chloro-2-fluoro-phenyl)-5-isopropyl-pyrimidin-4-ylamino]-N-[3-(3-hydroxy-pyrrolidin-1-yl)-propyl]-nicotinamide]
2 | 240 | COc1cnc(-c2cc(Cl)ccc2F)nc1Nc1ccncc1C(=O)NCC1CN(C(=O)OC(C)(C)C)C1 [Compound 105]
3 | 23 | COc1cnc(-c2cc(Cl)ccc2F)nc1Nc1ccncc1C(=O)NCCCN1CCC[C@H]1C(N)=O [Compound 123, N-[3-(2-Carbamoyl-pyrrolidin-1-yl)-propyl]-4-[2-(5-chloro-2-fluoro-phenyl)-5-methoxy-pyrimidin-4-ylamino]-nicotinamide]
4 | 7370 | COc1cnc(-c2cc(Cl)ccc2F)nc1Nc1ccncc1C(=O)N1CCN(CCO)CC1 [Compound 116, {4-[2-(5-Chloro-2-fluoro-phenyl)5-methoxy-pyrimidin-4-ylamino]pyridin-3-yl}-[4-(2-hydroxy-ethyl)-piperazin-1-yl]-methanone]
5 | 60 | COc1cnc(-c2cc(Cl)ccc2F)nc1Nc1ccncc1C(=O)NCCCNC(=O)COC1O[C@H](CO)[C@@H](O)[C@H](O)[C@H]1O (stereo in doubt) [Compound 135, 4-[2-(5-Chloro-2-fluoro-phenyl)-5-methoxy-pyrimidin-4-ylamino]-N-{3[2-(3,4,5-trihydroxy-6-hydroxymethyl-tetrahydro-pyran-2-yloxy)-acetylamino]-propyl)-nicotinamide]

The next lines start with the compound.

Row | Structure (SMILES) | IC50 [nM]
6 | COc1cnc(-c2cc(Cl)ccc2F)nc1Nc1ccncc1C(=O)NC1CN(C(=O)OC(C)(C)C)C1 [Compound 86, 3-({4-[2-(5-Chloro-2-fluoro-phenyl)-5-methoxy-pyrimidin-4-ylamino]-pyridine-3-carbonyl}-amino)-azetidine-1-carboxylic acid tert-butyl ester] | 310
7 | O=C(NCCN1CCCC1)c1cnccc1Nc1nc(-c2cc(Cl)ccc2F)ncc1N1CCCC1 [Compound 26, 4-[2-(5-Chloro-2-fluoro-phenyl)-5-pyrrolidin-1-yl-pyrimidin-4-ylamino]-N-(2-pyrrolidin-1-yl-ethyl)-nicotinamide] | 200
8 | COc1cnc(-c2cc(Cl)ccc2F)nc1Nc1ccncc1C(=O)NCCCNC(=O)OC(C)(C)C [Compound 33, [3-({4-[2-(5-Chloro-2-fluoro-phenyl)-5-methoxy-pyrmidin-4-ylamino]-pyridine-3-carbonyl}-amino)-propyl]-carbamic acid tert-butyl ester] | 1130
9 | O=C(NC1CC1)c1cnccc1Nc1nc(-c2cc(Cl)ccc2F)ncc1Cl [Compound 92, 4-[5-Chloro-2-(5-chloro-2-fluoro-phenyl)-pyrimidin-4-ylamino]-N-cyclopropyl-nicotinamide] | 130
10 | CC(C)c1cnc(-c2cc(Cl)ccc2F)nc1Nc1ccncc1C(=O)NCC(C)(C)O [Compound 52, 4-[2-(5-Chloro-2-fluoro-phenyl)-5-isopropyl-pyrimidin-4-ylamino]-N-(2-hydroxy-2-methyl-propyl)-nicotinamide] | 90
11 | COc1cnc(-c2cc(Cl)ccc2F)nc1Nc1ccncc1C(=O)NCCNCCOC1O[C@H](COC(C)=O)[C@@H](OC(C)=O)[C@H](OC(C)=O)[C@H]1OC(C)=O (stereo partly shown) [Compound 142, Acetic acid 3,4,5-triacetoxy-6-(2-[2-({4-[2-(5-chloro-2-fluoro-phenyl)-5-methoxy-pyrimidin-4-ylamino]-pyridine-3-carbonyl]-amino)-ethylamino]-ethoxy}tetrahydro-pyran-2-ylmethyl ester] | 10
12 | COc1cnc(-c2cc(Cl)ccc2F)nc1Nc1ccncc1C(=O)NCCCNCCOC1O[C@H](COC(C)=O)[C@@H](OC(C)=O)[C@H](OC(C)=O)[C@H]1OC(C)=O (stereo in doubt) [Compound 132, Acetic acid 3,4,5-triacetoxy-6-{2-[3-({4-[2-(5-chloro-2-fluoro-phenyl)-5-methoxy-pyrimidin-4-ylamino]-pyridine-3-carbonyl)-amino)-propylamino]-ethoxy}-tetrahydro-pyran-2-ylmethyl ester] | 32
13 | CN/C(=N\C#N)NCCCNC(=O)c1cnccc1Nc1nc(-c2cc(Cl)ccc2F)ncc1OC [Compound 41] | 50
14 | COc1cnc(-c2cc(Cl)ccc2F)nc1Nc1ccncc1C(=O)NCCNCC(F)(F)C(F)(F)F [Compound 102, 4-[2-(5-Chloro-2-fluoro-phenyl)-5-methoxy-pyrimidin-4-ylamino]-N-[2-(2,2,3,3,3-pentafluoro-propylamino)-ethyl]-nicotinamide] | 70
15 | COc1cnc(-c2cc(Cl)ccc2F)nc1Nc1ccncc1C(=O)NCC(=O)O [Compound 2, ({4-[2-(5-Chloro-2-fluoro-phenyl)-5-methoxy-pyrimidin-4-ylamino]-pyridine 3-carbonyl}-amino)-acetic acid] | 920

same assay, conditions: 10 uM ATP, 170 nM TGFβ R1, room temperature 20 minutes, read-out: IC50 for Kinase Inhibition

Row | IC50 [nM] | Structure (SMILES)
16 | 5 | COc1cnc(-c2cc(Cl)ccc2F)nc1Nc1ccncc1C(=O)NCCCN1CCC[C@@H]1C(N)=O [Compound 166, N-[3-(2-Carbamoyl-pyrrolidin-1-yl)-propyl]-4-[2-(5-chloro-2-fluoro-phenyl)-5-methoxy-pyrimidin-4-ylamino]-nicotinamide]
17 | 4 | CC(C)c1cnc(-c2cc(Cl)ccc2F)nc1Nc1ccncc1C(=O)NCCCN1CCCC1 [Compound 161, 4-[2-(5-Chloro-2-fluoro-phenyl)-5-isopropyl-pyrimidin-4-ylamino]-N-(3-pyrrolidin-1-yl-propyl)-nicotinamide]
18 | 68 | CC(C)c1cnc(-c2cc(Cl)ccc2F)nc1Nc1ccncc1C(=O)N1CC[C@H](N)C1 [Compound 209, (3-Amino-pyrrolidin-1-yl)-{4-[2-(5-chloro-2-fluoro-phenyl)-5-isopropyl-pyrimidin-4-ylamino]-pyridin-3-yl}-methanone]
19 | 127 | COc1cnc(-c2cc(Cl)ccc2F)nc1Nc1ccncc1C(=O)N1CC[C@@H](F)C1 [Compound 241, {4-[2-(5-Chloro-2-fluoro-phenyl)-5-methoxy-pyrimidin-4-ylamino]-pyridin-3-yl}-(3-fluoro-pyrrolidin-1-yl)-methanone]
20 | 673 | O=C(c1cnccc1Nc1nc(-c2cc(Cl)ccc2F)ncc1C1CCCC1)N1CC[C@H](O)C1 [Compound 212, {4-[2-(5-chloro-2-fluoro-phenyl)-5-cyclopentyl-pyrimidin-4-ylamino]-pyridin-3-yl}(3-hydroxy-pyrrolidin-1-yl)-methanone]
21 | 258 | COc1cnc(-c2cc(Cl)ccc2F)nc1Nc1ccncc1C(=O)N1CC[C@H](N)C1 [Compound 211, (3-Amino-pyrrolidin-1-yl)-{4-[2-(5-chloro-2-fluoro-phenyl)-5-methoxy-pyrimidin-4-ylamino]-pyridin-3-yl)-methanone]
22 | 2470 | O=C(c1cnccc1Nc1nc(-c2cc(Cl)ccc2F)ncc1C1CCCC1)N1CCC[C@H](O)C1 [Compound 226, {4-[2-(5-Chloro-2-fluoro-phenyl)-5-cyclopentyl-pyrimidin-4-ylamino]-pyridin-3-yl}-(3-hydroxy-piperidin-1-yl)-methanone]
23 | 42 | COc1cnc(-c2cc(Cl)ccc2F)nc1Nc1ccncc1C(=O)NC1(CO)CC1 [Compound 162, 4-[2-(5-Chloro-2-fluoro-phenyl)-5-methoxy-pyrimidin-4-ylamino]-N-(1-hydroxymethyl-cyclopropyl)-nicotinamide]
24 | 1210 | CC(C)c1cnc(-c2cc(Cl)ccc2F)nc1Nc1ccncc1C(=O)N1CCC[C@@H](O)C1 [Compound 217, {4-[2-(5-Chloro-2-fluoro-phenyl)-5-isopropyl-pyrimidin-4-ylamino]-pyridin-3-yl}-(3-hydroxy-piperidin-1-yl)-methanone]
25 | 178 | CC(C)c1cnc(-c2cc(Cl)ccc2F)nc1Nc1ccncc1C(=O)NC[C@H](C)OP(=O)(O)O [Compound 234, Phosphoric acid mono-[2-{[4-[2-(5-chloro-2-fluoro-phenyl}-5-isopropyl-pyrimidin-4-ylamino]-pyridine-3-carbony}-amino)-1-methyl-ethyl] ester]
